Test results as given in patent publication US11884683B2, “Tricyclic heterocycle compounds useful as HIV integrase inhibitors” (Merck Sharp & Dohme LLC, priority 2018, dated 2024).
Where two headings read alike, the source gives them in different places.

System: HIV-1 (H9/IIIB strain)
Assay: Multiple round HIV-1 infection assay in MT4-GFP cells (wild type cell assay, Viking)
Assay type: cell-based
Settings: 0% NHS condition, MT4-GFP cells infected with HIV-1 H9/IIIB, inhibition of reproductive ratio R0, ~48 h and ~72 h post-infection, read-out: WILD TYPE CELL ASSAY Viking IP (0% NHS)
Experimental: Assessing Antiviral Potency in a Multiple Round HIV-1 Infection Assay
The antiviral activity of the Examples herein was assessed in an assay that measures the rate of replication of HIV in cell culture, and performed according to the following procedure. HIV-1 replication was monitored using MT4-gag-GFP clone D3 (hereafter designated MT4-GFP), which are MT-4 cells modified to harbor a GFP reporter gene, the expression of which is dependent on the HIV-1 expressed proteins tat and rev. Productive infection of an MT4-GFP cell with HIV-1 results in GFP expression approximately 24 h post-infection. MT4-GFP cells were maintained at 37° C./5% CO2/90% relative humidity in RPMI 1640 supplemented with 10% fetal bovine serum, 100 U/ml penicillin/streptomycin, and 400 μg/ml G418 to maintain the reporter gene. For infections, MT4-GFP cells were placed in the same medium lacking G418 and infected overnight with HIV-1 (H9/IIIB strain) virus at an approximate multiplicity of infection of 0.01 in the same incubation conditions. Cells were then washed and re-suspended in either RPMI 1640 at 2×10^5 cells/mL (0% NHS condition) or 100% normal human serum (NHS) at 2×10^5 cells/mL (100% NHS condition). Compound plates were prepared by dispensing compounds dissolved in DMSO into wells of 384 well poly-D-lysine-coated plates (0.2 μl/well) using an ECHO acoustic dispenser. Each compound was tested in a 10-point serial 3-fold dilution (typical final concentrations: 1050 nM-0.05 nM for 0% NHS condition or […]-2.13 nM for 100% NHS condition). Controls included no inhibitor (DMSO only) and a combination of three antiviral agents (efavirenz, indinavir, an in-house integrase strand transfer inhibitor at final concentrations of […] each). Cells were added ([…]) to compound plates and the infected cells were maintained at 37° C./5% CO2/90% relative humidity.
Infected cells were quantified at two time points, ˜48 h and ˜72 h post-infection, by counting the number of green cells in each well using an Acumen eX3 scanner. The increase in the number of green cells over ˜24 h period gives the reproductive ratio, RO, which is typically 5-15 and has been shown experimentally to be in logarithmic phase (data not shown). Inhibition of R0 is calculated for each well, and IC50s determined by non-linear 4-parameter curve fitting.

[1] = Human immunodeficiency virus 1, IIIB

IC50 [1]	IC50	SMILES
1.7 nM	–	CC1N(C)C(=O)c2c(O)c(=O)c(C(=O)NCc3ccc(F)cc3F)c3n2N1CC3O (single isomer, unassigned) [Compound 13]
–	2.3 nM	CC1N(C)C(=O)c2c(O)c(=O)c(C(=O)NCc3c(F)ccc(F)c3F)c3n2N1CC3O (single isomer, unassigned) [Compound 22]
–	3.4 nM	CCC1N(C)C(=O)c2c(O)c(=O)c(C(=O)NCc3c(F)ccc(Cl)c3F)c3n2N1CC3O (single isomer, unassigned) [Compound 26]
–	0.76 nM	CCC1N(C)C(=O)c2c(O)c(=O)c(C(=O)NCc3ccc(F)cc3F)c3n2N1CC3O (single isomer, unassigned) [Compound 29]
1.4 nM	–	CCC1N(C)C(=O)c2c(O)c(=O)c(C(=O)NCc3c(F)cc(F)cc3F)c3n2N1CC3O (single isomer, unassigned) [Compound 33]
80 nM	–	CCN1C(=O)c2c(O)c(=O)c(C(=O)NCc3ccc(C(F)F)cc3)c3n2N(CC3O)C1C (single isomer, unassigned) [Compound 73]
–	66 nM	CCN1C(=O)c2c(O)c(=O)c(C(=O)NCc3ccc(C(F)F)cc3)c3n2N(CC3O)C1C (single isomer, unassigned) [Compound 74]
–	258 nM	CCN1C(=O)c2c(O)c(=O)c(C(=O)NCc3ccc(C(F)(F)F)cc3)c3n2N(CC3O)C1C (single isomer, unassigned) [Compound 77]
2.6 nM	–	CCN1C(=O)c2c(O)c(=O)c(C(=O)NCc3ccc(F)cc3)c3n2N(CC3O)C1C (single isomer, unassigned) [Compound 85]
–	1.9 nM	CCN1C(=O)c2c(O)c(=O)c(C(=O)NCc3ccc(F)cc3F)c3n2N(CC3O)C1C (single isomer, unassigned) [Compound 90]
2.1 nM	–	CN1C(=O)c2c(O)c(=O)c(C(=O)NCc3ccc(F)cc3F)c3n2N(CC3O)C12CCOC2 (single isomer, unassigned) [Compound 111]
3.2 nM	–	CN1CN2CC(O)c3c(C(=O)NCc4ccc(F)cc4F)c(=O)c(O)c(n32)C1=O (stereo not drawn) [Compound 3]
–	3.5 nM	CN1CN2CC(O)c3c(C(=O)NCc4ccc(F)cc4F)c(=O)c(O)c(n32)C1=O (stereo not drawn) [Compound 4]
3.5 nM	–	CN1CN2CC(O)c3c(C(=O)NCc4ccc(F)cc4)c(=O)c(O)c(n32)C1=O (stereo not drawn) [Compound 5]
–	3 nM	CN1CN2CC(O)c3c(C(=O)NCc4ccc(F)cc4)c(=O)c(O)c(n32)C1=O (stereo not drawn) [Compound 6]
–	1.5 nM	CC1N(C)C(=O)c2c(O)c(=O)c(C(=O)NCc3c(F)ccc(F)c3F)c3n2N1CC3O (stereo not drawn) [Compound 24]
–	3.3 nM	CCC1N(C)C(=O)c2c(O)c(=O)c(C(=O)NCc3c(F)ccc(Cl)c3F)c3n2N1CC3O (stereo not drawn) [Compound 28]
–	2.5 nM	CCC1N(C)C(=O)c2c(O)c(=O)c(C(=O)NCc3ccc(F)cc3F)c3n2N1CC3O (stereo not drawn) [Compound 32]
2.1 nM	–	CCC1N(C)C(=O)c2c(O)c(=O)c(C(=O)NCc3c(F)cc(F)cc3F)c3n2N1CC3O (stereo not drawn) [Compound 35]
–	1.5 nM	CCC1N(C)C(=O)c2c(O)c(=O)c(C(=O)NCc3c(F)cc(F)cc3F)c3n2N1CC3O (stereo not drawn) [Compound 36]

Continued, molecule first:

SMILES	IC50 [1]	IC50
CC1N(C)C(=O)c2c(O)c(=O)c(C(=O)NCc3ccc(F)cc3F)c3n2N1CC3O (single isomer, unassigned) [Compound 14]	–	1.4 nM
CC1N(C)C(=O)c2c(O)c(=O)c(C(=O)NCc3c(F)cc(F)cc3F)c3n2N1CC3O (single isomer, unassigned) [Compound 17]	1.5 nM	–
CC1N(C)C(=O)c2c(O)c(=O)c(C(=O)NCc3c(F)cc(F)cc3F)c3n2N1CC3O (single isomer, unassigned) [Compound 18]	–	1.6 nM
CC1N(C)C(=O)c2c(O)c(=O)c(C(=O)NCc3c(F)ccc(F)c3F)c3n2N1CC3O (single isomer, unassigned) [Compound 21]	1.4 nM	–
CCC1N(C)C(=O)c2c(O)c(=O)c(C(=O)NCc3c(F)ccc(Cl)c3F)c3n2N1CC3O (single isomer, unassigned) [Compound 25]	2 nM	–
CCC1N(C)C(=O)c2c(O)c(=O)c(C(=O)NCc3ccc(F)cc3F)c3n2N1CC3O (single isomer, unassigned) [Compound 30]	–	1.6 nM
CCC1N(C)C(=O)c2c(O)c(=O)c(C(=O)NCc3c(F)cc(F)cc3F)c3n2N1CC3O (single isomer, unassigned) [Compound 34]	–	2.8 nM
CCN1C(=O)c2c(O)c(=O)c(C(=O)NCc3c(F)ccc(Cl)c3F)c3n2N(CC3O)C1C (single isomer, unassigned) [Compound 69]	1.9 nM	–
CCN1C(=O)c2c(O)c(=O)c(C(=O)NCc3c(F)ccc(Cl)c3F)c3n2N(CC3O)C1C (single isomer, unassigned) [Compound 70]	–	1.8 nM
CCN1C(=O)c2c(O)c(=O)c(C(=O)NCc3ccc(C(F)(F)F)cc3)c3n2N(CC3O)C1C (single isomer, unassigned) [Compound 78]	–	87 nM
CCN1C(=O)c2c(O)c(=O)c(C(=O)NCc3c(F)ccc(F)c3F)c3n2N(CC3O)C1C (single isomer, unassigned) [Compound 81]	2.8 nM	–
CCN1C(=O)c2c(O)c(=O)c(C(=O)NCc3c(F)ccc(F)c3F)c3n2N(CC3O)C1C (single isomer, unassigned) [Compound 82]	–	2.2 nM
CCN1C(=O)c2c(O)c(=O)c(C(=O)NCc3ccc(F)cc3)c3n2N(CC3O)C1C (single isomer, unassigned) [Compound 86]	–	1.3 nM
CCN1C(=O)c2c(O)c(=O)c(C(=O)NCc3ccc(F)cc3F)c3n2N(CC3O)C1C (single isomer, unassigned) [Compound 89]	1.9 nM	–
CN1C(=O)c2c(O)c(=O)c(C(=O)NCc3ccc(F)cc3F)c3n2N(CC3O)C12CCOC2 (single isomer, unassigned) [Compound 112]	–	1.7 nM
CN1C(=O)c2c(O)c(=O)c(C(=O)NCc3c(F)ccc(Cl)c3F)c3n2N(CC3O)C12CCOC2 (single isomer, unassigned) [Compound 115]	2 nM	–
CN1C(=O)c2c(O)c(=O)c(C(=O)NCc3c(F)ccc(Cl)c3F)c3n2N(CC3O)C12CCOC2 (single isomer, unassigned) [Compound 116]	–	3.1 nM

SMILES	IC50 [1]	IC50
CN1CN2CC(O)c3c(C(=O)NCc4c(F)ccc(Cl)c4F)c(=O)c(O)c(n32)C1=O (stereo not drawn) [Compound 7]	1.6 nM	–
CN1CN2CC(O)c3c(C(=O)NCc4c(F)ccc(Cl)c4F)c(=O)c(O)c(n32)C1=O (stereo not drawn) [Compound 8]	–	1.9 nM
CC1N(C)C(=O)c2c(O)c(=O)c(C(=O)NCc3ccc(F)cc3F)c3n2N1CC3O (stereo not drawn) [Compound 15]	2.6 nM	–
CC1N(C)C(=O)c2c(O)c(=O)c(C(=O)NCc3ccc(F)cc3F)c3n2N1CC3O (stereo not drawn) [Compound 16]	–	1.9 nM
CC1N(C)C(=O)c2c(O)c(=O)c(C(=O)NCc3c(F)cc(F)cc3F)c3n2N1CC3O (stereo not drawn) [Compound 19]	2.7 nM	–
CC1N(C)C(=O)c2c(O)c(=O)c(C(=O)NCc3c(F)cc(F)cc3F)c3n2N1CC3O (stereo not drawn) [Compound 20]	–	1.7 nM
CC1N(C)C(=O)c2c(O)c(=O)c(C(=O)NCc3c(F)ccc(F)c3F)c3n2N1CC3O (stereo not drawn) [Compound 23]	2.3 nM	–
CCC1N(C)C(=O)c2c(O)c(=O)c(C(=O)NCc3c(F)ccc(Cl)c3F)c3n2N1CC3O (stereo not drawn) [Compound 27]	2.9 nM	–
CCC1N(C)C(=O)c2c(O)c(=O)c(C(=O)NCc3ccc(F)cc3F)c3n2N1CC3O (stereo not drawn) [Compound 31]	4.9 nM	–
COCCN1CN2CC(O)c3c(C(=O)NCc4ccc(F)c(Cl)c4F)c(=O)c(O)c(n32)C1=O (stereo not drawn) [Compound 39]	2.2 nM	–
COCCN1CN2CC(O)c3c(C(=O)NCc4ccc(F)c(Cl)c4F)c(=O)c(O)c(n32)C1=O (stereo not drawn) [Compound 40]	–	2.1 nM
COCCN1CN2CC(O)c3c(C(=O)NCc4cccc(Cl)c4F)c(=O)c(O)c(n32)C1=O (stereo not drawn) [Compound 41]	2.8 nM	–
COCCN1CN2CC(O)c3c(C(=O)NCc4cccc(Cl)c4F)c(=O)c(O)c(n32)C1=O (stereo not drawn) [Compound 42]	–	1.9 nM
COCCN1CN2CC(O)c3c(C(=O)NCc4c(F)ccc(Cl)c4F)c(=O)c(O)c(n32)C1=O (stereo not drawn) [Compound 43]	3.4 nM	–
COCCN1CN2CC(O)c3c(C(=O)NCc4c(F)ccc(Cl)c4F)c(=O)c(O)c(n32)C1=O (stereo not drawn) [Compound 44]	–	3.1 nM
COCCN1CN2CC(O)c3c(C(=O)NCc4c(F)cc(F)cc4F)c(=O)c(O)c(n32)C1=O (stereo not drawn) [Compound 45]	2.5 nM	–
COCCN1CN2CC(O)c3c(C(=O)NCc4c(F)cc(F)cc4F)c(=O)c(O)c(n32)C1=O (stereo not drawn) [Compound 46]	–	3.7 nM
